Assay results reported in patent publication US6544727B1, “Methods and devices for the removal of psoralens from blood products” (Cerus Corporation, priority 1995, dated 2003).

Key:
platelets [1] = test: In vitro platelet function after photochemical treatment and 8-hour RD treatment (Tables O, P); assay type: cell-based, human; conditions: RD 8 hours; for pH: T: 150 μM S-59, 3 Joules/cm^2 UVA; for (%) Aggregation / (%) HSR / (%) Microvesicle Formation / (%) p-Selectin-Positive / ATP / Bicarbonate / Glucose / Lactate / Morphology (Out Of 400) / Platelet Shape Change / Platelet count / pCO2 / pO2: T: S-59, UVA
Protocol: Two ABO-matched single donor PCs containing 2−5×10^11 platelets in approximately 300 mL of 35% plasma and 65% PAS III were pooled and redivided into two identical units in PL 2410 Plastic containers (Baxter). One unit (the control) was immediately placed on a platelet shaker and stored at approximately 22° C. The other unit (the test) was treated with 150 μM S-59 and 3 Joules/cm^2 UVA. After treatment, the platelets suspension was transferred into a second PL 2410 Plastic container containing a RD. Contact between platelets and the RD occurred for a period of approximately 8 hours, then the platelet suspension was transferred to a new PL 2410 Plastic container for storage. The time of blood donation was defined as day 0. Treatment with S-59, UVA (320-400 nm), and the RD was performed on day 1. Six replicate experiments were carried out, each with a different pool of two ABO-matched single-donor platelet concentrates.
For the evaluation of in vitro platelet function, platelet samples were withdrawn from both the control and test units before treatment and after treatment on days 2, 5, and 7. The following parameters were analyzed: pH, pO2, pCO2, bicarbonate concentration, platelet count, morphology, aggregation, platelet shape change, hypotonic shock response, lactate production, glucose consumption, ATP secretion, p-selectin expression, and microvesicle formation. Several of these assays, including pH, morphology score, platelet shape change, and hypotonic shock response, have been reported in the literature to correlate with in- vivo post-transfusion recovery and survival. The Student's paired t-test was used for statistical analysis.
For platelet count measurement, the volume of the control unit is approximately 5% less than the volume of the paired test unit; thus, for statistical analysis the platelet count per μL for the test unit was adjusted by a factor of […]. The pH of the treated platelets was maintained at 6.91±0.05 after seven days of storage following treatment.

platelets [2] = test: Partitioning of S-59 in platelet concentrate before and after UVA illumination; assay type: in vitro ADME; conditions: % of the original S-59, after UVA
Text: During the UVA illumination process, S-59 undergoes a photochemical reaction to form several low molecular weight photoproducts in addition to associating with macromolecules in both the platelet and the plasma fractions. […] This fraction of low molecular weight photoproducts is removed during the scrub process, and their removal can be monitored both by HPLC and by radioactivity measurement using ^3H-labeled S-59.
The S-59 which is not amenable to removal by the scrub/capture process can also be monitored using ^3H-labeled S-59.

[3] = HPLC of residual S-59 and photoproducts after RD containing Dowex XUS-43493 (Table N); assay type: physicochemical
Protocol: […] The unbound photoproducts can be monitored and quantified using a standard HPLC assay.
Samples were prepared for HPLC analysis according to the general procedure described in Example 39, infra. Briefly, the assay involved an initial sample preparation which lyses the platelets and solubilizes the S-59 and photoproducts. The supernatant from the sample preparation was then analyzed on a C-18 reverse phase column with a gradient of increasing methanol in KH2PO4 buffer. The major peaks were detected by optical absorbance.
Following illumination with 3.0 J/cm^2 UVA of a PC to which 15.2 mg S-59 had been added, the treated PC was incubated with the RD (contained within a PL 2410 Plastic container, Baxter) for 8 hours. Samples of the treated PC were then taken and subjected to HPLC for detection of residual S-59 and S-59 photoproducts. […] The Limit of Quantitation (LOQ) for the HPLC assay was 0.3 μM S-59.
The data described above indicate that the levels of residual photoproducts D and E are higher than levels of residual S-59 even thought the initial levels of D and E in the illuminated PC were much lower than S-59. […] The PC was assayed for unbound photoproducts using the HPLC assay discussed above, which quantifies the photoproducts present both within the platelets and in the plasma/PAS III mixture. […]

Compound: Cc1oc2c(C)c3oc(=O)cc(C)c3cc2c1COCCN [Compound 2, 4′-(4-amino-2-oxa)butyl-4,5′,8-trimethylpsoralen]
- pH (platelets [1]; Day 2): 6.94 ± 0.05
- pH (platelets [1]; Day 5): 6.92 ± 0.06
- pH (platelets [1]; Day 7): 6.91 ± 0.05
- (%) Aggregation (platelets [1]; Day 2): 88 ± 4%
- (%) HSR (platelets [1]; Day 2): 52 ± 5 %
- (%) Microvesicle Formation (platelets [1]; Day 2): 0.9 ± 0.2%
- (%) p-Selectin-Positive (platelets [1]; Day 2): 49 ± 5 %
- ATP (platelets [1]; Day 2): 1.0 ± 0.1 Nmoles Per 10^8 Platelets
- Bicarbonate (platelets [1]; Day 2): 6.3 ± 0.3 mM
- Glucose (platelets [1]; Day 2): 4.6 ± 0.9 mM
- Lactate (platelets [1]; Day 2): 4.7 ± 1.2 mM
- Morphology (Out Of 400) (platelets [1]; Day 2): 302 ± 16
- Platelet Shape Change (platelets [1]; Day 2): 1.0 ± 0.1
- Platelet count (platelets [1]; Day 2): 1545 ± 247 × 10^−3/μL
- pCO2 (platelets [1]; Day 2): 29.2 ± 3.8 mm Hg
- pO2 (platelets [1]; Day 2): 68.3 ± 19.4 mm Hg
- (%) Aggregation (platelets [1]; Day 5): 81 ± 7%
- (%) HSR (platelets [1]; Day 5): 45 ± 3%
- (%) Microvesicle Formation (platelets [1]; Day 5): 0.8 ± 0.2%
- (%) p-Selectin-Positive (platelets [1]; Day 5): 58 ± 5%
- ATP (platelets [1]; Day 5): 0.7 ± 0.2 Nmoles Per 10^8 Platelets
- Bicarbonate (platelets [1]; Day 5): 4.8 ± 0.5 mM
- Glucose (platelets [1]; Day 5): 2.1 ± 1.1 mM
- Lactate (platelets [1]; Day 5): 8.5 ± 1.6 mM
- Morphology (Out Of 400) (platelets [1]; Day 5): 290 ± 20
- Platelet Shape Change (platelets [1]; Day 5): 0.9 ± 0.1
- Platelet count (platelets [1]; Day 5): 1525 ± 246 × 10^−3/μL
- pCO2 (platelets [1]; Day 5): 23.7 ± 3.5 mm Hg
- pO2 (platelets [1]; Day 5): 84.8 ± 22.5 mm Hg
- (%) Aggregation (platelets [1]; Day 7): 81 ± 4%
- (%) HSR (platelets [1]; Day 7): 48 ± 8%
- (%) Microvesicle Formation (platelets [1]; Day 7): 1.7 ± 1.7%
- (%) p-Selectin-Positive (platelets [1]; Day 7): 60 ± 7%
- ATP (platelets [1]; Day 7): 0.6 ± 0.2 Nmoles Per 10^8 Platelets
- Bicarbonate (platelets [1]; Day 7): 4.2 ± 0.7 mM
- Glucose (platelets [1]; Day 7): 0.8 ± 0.8 mM
- Lactate (platelets [1]; Day 7): 10.8 ± 1.3 mM
- Morphology (Out Of 400) (platelets [1]; Day 7): 274 ± 12
- Platelet Shape Change (platelets [1]; Day 7): 0.9 ± 0.3
- Platelet count (platelets [1]; Day 7): 1500 ± 219 × 10^−3/μL
- pCO2 (platelets [1]; Day 7): 20.7 ± 2.4 mm Hg
- pO2 (platelets [1]; Day 7): 88.8 ± 20.2 mm Hg
- photo-reaction products of S-59 (platelets [2]): 40-50%
- Concentration Remaining (Average ± S.D.) ([3]; PC with 15.2 mg S-59, 3.0 J/cm^2 UVA, incubated 8 hours with RD containing Dowex XUS-43493, LOQ 0.3 μM): 270 ± 50 nM
- initial 15.2 mg of S-59 removed from PCs ([3]; following illumination and incubation with the RD): greater than 99%
